Results as given in US20100160304A1, “AROMATIC SULFONE COMPOUND AS ALDOSTERONE RECEPTOR MODULATOR” (Dainippon Sumitomo Pharma Co., Ltd, priority 2005, published 2010).

Assays:
[1] = test system: decrease of Na/K ratio in urine induced with aldosterone; experiment: Antagonistic action (in vivo antagonist activity) against decrease of Na/K ratio in urine induced with aldosterone, adrenalectomized rat; conditions: oral 10 and 30 mg/kg, 30 minutes before subcutaneous aldosterone, urine collection 4 hours (FIG. 1)
Experimental: After anesthetizing a rat by administering 50 mg/kg of sodium pentobarbital in its abdominal cavity and disinfecting its skin with the Isodine diluted solution, the rat was incised. After adrenalectomy and confirming the hemostasis, the muscular layer and skin were sutured in this order and then the sutured part was disinfected with the Isodine diluted solution. After breeding 3 days or more, a rat showing good progress was subjected to the following test.
It was fasted from the day preceding an examination, put into a metabolic cage at the day of the examination, and then subjected to a urine collection for 4 hours. When a substance to be tested was administered orally, it was administered in an amount of 5 ml/kg with 0.5% methylcellulose as a solvent. The aldosterone was dissolved with 1% ethanol/physiological saline and administered subcutaneously. The substance to be tested was administered 30 minutes before administering aldosterone. In order to stabilize and sufficiently secure the amount of the urine, physiological saline was administered orally in an amount of 20 ml/kg at the time of administering aldosterone. The colleted urine, after measuring its volume, was subjected to a measurement of electrolyte (sodium: Na and potassium: K) concentration in the urine with a biochemistry autoanalyzer (manufactured by Beckman, Synchron CX3 system Delta).

[2] = molecular target: T1, aldosterone receptor MR (Rattus norvegicus, UniProt P22199); experiment: Aldosterone receptor binding assay ([3H]aldosterone, soluble fraction of rat kidney); conditions: [3H]aldosterone 2 nM, 2 μM RU-486, 4° C. about 18 hours
T1 construct: the resultant supernatant was being a soluble fraction of the kidney; from tissue; host or cells: kidney of adrenalectomized rat, 105,000 G supernatant (soluble fraction)
T1 sequence (P22199 1-981): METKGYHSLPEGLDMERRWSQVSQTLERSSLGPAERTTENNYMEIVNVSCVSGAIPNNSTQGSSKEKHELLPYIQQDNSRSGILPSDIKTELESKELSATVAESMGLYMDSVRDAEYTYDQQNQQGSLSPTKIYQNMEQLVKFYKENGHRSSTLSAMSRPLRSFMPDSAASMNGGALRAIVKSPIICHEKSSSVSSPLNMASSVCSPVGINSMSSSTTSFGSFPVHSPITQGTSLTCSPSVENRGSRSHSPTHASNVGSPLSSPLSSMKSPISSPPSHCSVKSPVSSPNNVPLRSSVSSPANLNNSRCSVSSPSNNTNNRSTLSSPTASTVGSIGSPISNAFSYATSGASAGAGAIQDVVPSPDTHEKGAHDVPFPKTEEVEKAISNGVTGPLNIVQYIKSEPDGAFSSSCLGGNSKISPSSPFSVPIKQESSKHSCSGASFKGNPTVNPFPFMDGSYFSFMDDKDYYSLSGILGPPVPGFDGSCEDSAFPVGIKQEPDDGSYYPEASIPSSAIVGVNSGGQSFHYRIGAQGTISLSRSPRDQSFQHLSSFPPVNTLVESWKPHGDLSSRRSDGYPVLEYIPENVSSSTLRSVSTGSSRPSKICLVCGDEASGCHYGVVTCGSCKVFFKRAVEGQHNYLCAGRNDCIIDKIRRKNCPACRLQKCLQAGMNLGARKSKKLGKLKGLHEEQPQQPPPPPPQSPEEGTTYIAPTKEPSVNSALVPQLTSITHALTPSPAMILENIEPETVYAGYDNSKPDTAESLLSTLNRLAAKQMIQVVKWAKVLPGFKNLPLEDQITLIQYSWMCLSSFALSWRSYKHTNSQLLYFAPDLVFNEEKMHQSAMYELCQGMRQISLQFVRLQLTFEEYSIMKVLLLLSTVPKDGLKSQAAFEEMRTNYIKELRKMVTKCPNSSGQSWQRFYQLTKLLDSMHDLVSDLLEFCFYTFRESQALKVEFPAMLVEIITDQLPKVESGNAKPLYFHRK
Experimental: Flank incision (both sides) was subjected to a rat to adrenalectomize. After suturing the rat's incised parts, the rat was again returned to a breeding cage and bred for a duration of 3 to 5 days to collect a kidney from the rat; the collected kidney was homogenized with 0.1 M Tris-HCl, 0.25M sucrose, 0.1M Na2MoO4, 2 mM DTT buffer solution (pH 7.4), the resultant solution was subjected to centrifugal separation at 105,000 G for 30 minutes, and the resultant supernatant was being a soluble fraction of the kidney.
Thereafter, the reactant solution was added with 50 μL of 5% dextran coated charcoal and mixed, and then centrifugated at 3,000 G for 5 minutes. Subsequently, 100 μL of the supernatant was collected and mixed with 3.5 mL of liquid scintillator ACS-II (Amersham) to measure a radioactivity with a liquid scintillation counter (manufactured by Packard, Tri Carb 2700TR). A non-specific binding was determined by adding 2 μM of aldosterone to the reactant solution.
Binding inhibiting rate (%)=10−[(B−N)/(B0−N)]×100
B: Binding amount of the marker ligand in the co-presence of the tested substance and marker ligand,
B0: Binding amount of the marker ligand in the absence of the tested substance, and
N: Binding amount of the marker ligand in the presence of excess aldosterone (2 μM).

Row | SMILES | IC50 [2] [nM] | inhibition of the decrease of the urine Na/K ratio induced with aldosterone [1]
1 | CC1(C)OC(=S)Nc2ccc(NS(=O)(=O)c3cccs3)cc21 [Example 24, N-(4,4-Dimethyl-2-thioxo-1,4-dihydro-2H-3,1-benzoxazin-6-yl)thiophene-2-sulfonamide] | 13 | dose-dependently inhibited the decrease of the urine Na/K ratio
2 | CC1=CC(C)(C)Nc2ccc(NS(=O)(=O)c3cccnc3)cc21 [Example 73, N-(2,2,4-Trimethyl-1,2-dihydroquinolin-6-yl)pyridine-3-sulfonamide] | 210 | 
3 | CC1=CC(C)(C)Nc2ccc(NS(=O)(=O)c3ccsc3)cc21 [Example 74, N-(2,2,4-Trimethyl-1,2-dihydroquinolin-6-yl)thiophene-3-sulfonamide] | 120 | 
4 | CC1=CC(C)(C)Nc2ccc(NS(=O)(=O)c3cc4ccccc4s3)cc21 [Example 75, N-(2,2,4-Trimethyl-1,2-dihydroquinolin-6-yl)-1-benzothiophene-2-sulfonamide] | 390 | 
5 | CC1=CC(C)(C)Nc2ccc(NS(=O)(=O)c3ccccc3C)cc21 [Example 78, 2-Methyl-N-(2,2,4-trimethyl-1,2-dihydroquinolin-6-yl)benzenesulfonamide] | 900 | 
6 | CC1=CC(C)(C)Nc2cc(C)c(NS(=O)(=O)c3ccc(C)cc3)cc21 [Example 80, 4-Methyl-N-(2,2,4,7-tetramethyl-1,2-dihydroquinolin-6-yl)benzenesulfonamide] | 1300 | 
7 | CC1=CC(C)(C)Nc2ccc(N(C)S(=O)(=O)c3ccc(C)cc3)cc21 [Example 81, N,4-Dimethyl-N-(2,2,4-trimethyl-1,2-dihydroquinolin-6-yl)benzenesulfonamide] | 500 | 
8 | CC1=CC(C)(C)Nc2ccc(N(C)S(=O)(=O)c3cccs3)cc21 [Example 85, N-Methyl-N-(2,2,4-trimethyl-1,2-dihydroquinolin-6-yl)thiophene-2-sulfonamide] | 150 | 
9 | CC(=O)N(c1ccc2c(c1)C(C)=CC(C)(C)N2)S(=O)(=O)c1ccc(C)cc1 [Example 86, N-[(4-Methylphenyl)sulfonyl]-N-(2,2,4-trimethyl-1,2-dihydroquinolin-6-yl)acetamide] | 270 | 
10 | CC(=O)N(c1ccc2c(c1)C(C)=CC(C)(C)N2)S(=O)(=O)c1ccccc1 [Example 87, N-(Phenylsulfonyl)-N-(2,2,4-trimethyl-1,2-dihydroquinolin-6-yl)acetamide] | 500 | 
11 | CC(=O)N(c1ccc2c(c1)C(C)=CC(C)(C)N2)S(=O)(=O)c1ccc(Cl)cc1 [Example 88, N-[(4-Chlorophenyl)sulfonyl]-N-(2,2,4-trimethyl-1,2-dihydroquinolin-6-yl) acetamide] | 300 | 
12 | CC(=O)N(c1ccc2c(c1)C(C)=CC(C)(C)N2)S(=O)(=O)c1ccc(Cl)s1 [Example 89, N-[(5-Chloro-2-thienyl)sulfonyl]-N-(2,2,4-trimethyl-1,2-dihydroquinolin-6-yl)acetamide] | 300 | 
13 | COC(=O)C(=O)N(c1ccc2c(c1)C(C)=CC(C)(C)N2)S(=O)(=O)c1cccs1 [Example 91, Methyl Oxo[(2-thienylsulfonyl)-(2,2,4-trimethyl-1,2-dihydroquinolin-6-yl)amino]acetate] | 100 | 
14 | Cc1ccc(S(=O)(=O)Cc2ccc3c(c2)C(C)CC(C)(C)N3)cc1 (centres unmarked) [Example 96, 2,2,4-Trimethyl-6-{[(4-methylphenyl)sulfonyl]methyl}-1,2,3,4-tetrahydroquinoline] | 500 | 
15 | Cc1ccc(S(=O)(=O)Nc2ccc3c(c2)C(C)CC(C)(C)N3)cc1 (centres unmarked) [Example 97, 4-Methyl-N-(2,2,4-trimethyl-1,2,3,4-tetrahydroquinolin-6-yl)benzenesulfonamide] | 2200 | 
16 | CC1CC(C)(C)Nc2ccc(NS(=O)(=O)c3cccs3)cc21 (centres unmarked) [Example 98, N-(2,2,4-Trimethyl-1,2,3,4-tetrahydroquinolin-6-yl)thiophene-2-sulfonamide] | 94 | 

More lines, main results first:

Row | IC50 [2] [nM] | SMILES | inhibition of the decrease of the urine Na/K ratio induced with aldosterone [1]
17 | 3900 | CC1CC(C)(C)Nc2ccc(NS(=O)(=O)c3ccc4ccccc4c3)cc21 (centres unmarked) [Example 99, N-(2,2,4-Trimethyl-1,2,3,4-tetrahydroquinolin-6-yl)naphthalene-2-sulfonamide] | 
18 | 2100 | Cc1ccc(S(=O)(=O)N(C)c2ccc3c(c2)C(C)CC(C)(C)N3)cc1 (centres unmarked) [Example 100, N,4-Dimethyl-N-(2,2,4-trimethyl-1,2,3,4-tetrahydroquinolin-6-yl)benzenesulfonamide] | 
19 | 190 | CC(=O)N(c1ccc2c(c1)C(C)CC(C)(C)N2)S(=O)(=O)c1ccc(C)cc1 (centres unmarked) [Example 101, N-[(4-Methylphenyl)sulfonyl]-N-(2,2,4-trimethyl-1,2,3,4-tetrahydroquinolin-6-yl)acetamide] | 
20 | 1800 | Cc1ccc(S(=O)(=O)Cc2ccc3c(c2)CCC(C(F)(F)F)N3)cc1 (centres unmarked) [Example 104, 6-{[(4-Methylphenyl)sulfonyl]methyl}-2-(trifluoromethyl)-1,2,3,4-tetrahydroquinoline] | 
21 | 6600 | Cc1ccc(S(=O)(=O)Oc2ccc(NS(C)(=O)=O)cc2)cc1 [Example 105, 4-[(Methylsulfonyl)amino]phenyl 4-methylbenzenesulfonate] | 
22 | 8000 | CCCCS(=O)(=O)Nc1ccc(OS(=O)(=O)c2ccc(C)cc2)cc1 [Example 106, 4-[(Butylsulfonyl)amino]phenyl 4-methylbenzenesulfonate] | 
23 | 16000 | Cc1ccc(S(=O)(=O)Oc2ccc(NS(C)(=O)=O)cc2C)cc1 [Example 109, 2-Methyl-4-[(methylsulfonyl)amino]phenyl 4-methylbenzenesulfonate] | 
24 | 9400 | Cc1ccc(S(=O)(=O)Oc2ccc(NS(C)(=O)=O)cc2F)cc1 [Example 110, 2-Fluoro-4-[(methylsulfonyl)amino]phenyl 4-methylbenzenesulfonate] | 
25 | 5400 | Cc1ccc(S(=O)(=O)Cc2ccc(NS(C)(=O)=O)cc2)cc1 [Example 112, N-(4-{[(4-Methylphenyl)sulfonyl]methyl}phenyl)methanesulfonamide] | 
